According to patent US8536183B2, “3-pyridylcarbonyl-piperazinylsulfonyl derivatives” (Convergence Pharmaceuticals Limited, priority 2008, dated 2013):
Structures can show the parent of a compound that is named as a salt.

target: T1, hCaV2.2 (Homo sapiens, UniProt Q00975); test: hCaV2.2 assay, IonWorks planar array electrophysiology in stably transfected HEK293 cells; type: cell-based; conditions: current elicited by the 1st depolarising pulse inhibited by 50%; HEK293 cells expressing human CaV2.2 alpha/beta3/alpha2delta1; read-out: mean pIC50 (tonic pIC50) (converted)
T1 construct: expressed in transfected cells; plasmids pCIN5-hCaV2.2, pCIH-hCaV β3, pCIP-α2δ1
T1 sequence (Q00975 whole entry): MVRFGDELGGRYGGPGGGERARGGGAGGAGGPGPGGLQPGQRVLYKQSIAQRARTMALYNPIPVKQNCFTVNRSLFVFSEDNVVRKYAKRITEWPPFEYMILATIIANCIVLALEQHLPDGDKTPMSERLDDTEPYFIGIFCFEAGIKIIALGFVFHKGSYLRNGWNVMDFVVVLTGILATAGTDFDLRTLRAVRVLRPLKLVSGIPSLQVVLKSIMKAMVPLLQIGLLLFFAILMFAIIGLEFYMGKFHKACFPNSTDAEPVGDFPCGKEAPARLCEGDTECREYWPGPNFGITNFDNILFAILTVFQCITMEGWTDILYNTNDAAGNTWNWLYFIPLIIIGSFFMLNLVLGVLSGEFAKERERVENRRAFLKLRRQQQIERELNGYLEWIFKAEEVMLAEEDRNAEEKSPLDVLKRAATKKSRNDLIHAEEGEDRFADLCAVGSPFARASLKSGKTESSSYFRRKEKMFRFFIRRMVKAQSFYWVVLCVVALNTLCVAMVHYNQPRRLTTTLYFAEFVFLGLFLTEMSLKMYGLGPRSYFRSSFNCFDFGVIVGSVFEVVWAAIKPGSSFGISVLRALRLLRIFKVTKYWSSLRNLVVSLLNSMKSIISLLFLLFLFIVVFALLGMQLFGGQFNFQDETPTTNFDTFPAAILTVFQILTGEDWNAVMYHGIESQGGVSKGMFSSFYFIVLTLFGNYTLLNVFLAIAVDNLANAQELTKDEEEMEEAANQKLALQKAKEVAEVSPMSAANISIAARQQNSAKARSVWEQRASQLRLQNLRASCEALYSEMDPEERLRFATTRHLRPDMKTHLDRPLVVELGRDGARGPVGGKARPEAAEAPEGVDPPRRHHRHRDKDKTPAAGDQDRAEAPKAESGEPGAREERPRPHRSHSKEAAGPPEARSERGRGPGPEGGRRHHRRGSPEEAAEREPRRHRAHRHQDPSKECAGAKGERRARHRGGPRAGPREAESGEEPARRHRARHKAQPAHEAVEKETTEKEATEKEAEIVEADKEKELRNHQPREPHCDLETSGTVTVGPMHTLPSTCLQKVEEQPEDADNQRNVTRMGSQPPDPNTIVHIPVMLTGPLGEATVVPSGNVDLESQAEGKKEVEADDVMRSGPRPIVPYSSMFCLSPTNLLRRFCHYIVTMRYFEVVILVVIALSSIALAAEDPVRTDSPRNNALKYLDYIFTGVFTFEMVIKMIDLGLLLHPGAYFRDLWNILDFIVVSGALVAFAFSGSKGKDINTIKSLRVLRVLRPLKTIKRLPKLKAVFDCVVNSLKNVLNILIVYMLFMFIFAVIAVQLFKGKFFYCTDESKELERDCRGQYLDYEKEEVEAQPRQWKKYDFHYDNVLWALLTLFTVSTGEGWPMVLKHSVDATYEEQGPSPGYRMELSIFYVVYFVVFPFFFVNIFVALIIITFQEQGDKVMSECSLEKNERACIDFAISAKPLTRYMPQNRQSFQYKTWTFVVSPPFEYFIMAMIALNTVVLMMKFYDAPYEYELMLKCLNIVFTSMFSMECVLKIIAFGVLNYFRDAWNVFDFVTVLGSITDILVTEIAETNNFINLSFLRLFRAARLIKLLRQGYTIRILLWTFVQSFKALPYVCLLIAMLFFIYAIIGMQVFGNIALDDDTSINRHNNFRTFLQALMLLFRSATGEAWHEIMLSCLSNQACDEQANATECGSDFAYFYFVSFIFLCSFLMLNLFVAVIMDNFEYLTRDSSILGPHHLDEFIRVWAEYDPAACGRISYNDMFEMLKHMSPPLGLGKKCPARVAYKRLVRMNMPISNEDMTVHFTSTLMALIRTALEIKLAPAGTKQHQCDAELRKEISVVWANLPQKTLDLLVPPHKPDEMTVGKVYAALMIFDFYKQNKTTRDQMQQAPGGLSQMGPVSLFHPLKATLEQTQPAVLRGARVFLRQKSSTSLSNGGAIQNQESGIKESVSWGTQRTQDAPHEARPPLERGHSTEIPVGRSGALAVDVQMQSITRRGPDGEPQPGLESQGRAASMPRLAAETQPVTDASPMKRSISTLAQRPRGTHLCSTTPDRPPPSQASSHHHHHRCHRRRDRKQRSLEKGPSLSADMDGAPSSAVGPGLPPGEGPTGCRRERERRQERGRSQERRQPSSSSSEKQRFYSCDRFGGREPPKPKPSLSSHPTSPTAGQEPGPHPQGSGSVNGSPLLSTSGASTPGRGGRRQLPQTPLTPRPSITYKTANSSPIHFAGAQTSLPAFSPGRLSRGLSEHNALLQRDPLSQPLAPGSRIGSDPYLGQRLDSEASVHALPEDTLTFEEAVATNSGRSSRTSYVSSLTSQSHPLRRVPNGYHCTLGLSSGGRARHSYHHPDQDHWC
Experimental: Compounds of the invention may be tested for in vitro biological activity in the hCaV2.2 assay in accordance with the following studies:
Stable cell lines expressing the human CaV2.2 α (als) subunit, along with the human […] and α2δ1 auxiliary subunits were created following sequential transfection and selection of human embryonic kidney (HEK293) cells. HEK293 cells were cultured in Dulbecco's modified Eagles media/F12 media (Invitrogen, Cat #041-95750V) containing 10% foetal bovine serum, with added L-glutamine (2 mM; Invitrogen, Cat #25030-024) and non-essential amino acids (5%; Invitrogen, Cat #11140-035). Initially HEK293 cells were transfected with two plasmid vectors for expression of the hCaV2.2 α subunit (pCIN5-hCaV2.2 which carries a neomycin resistance marker) and the hCaV β3 subunit (pCIH-hCaV β3 which carries a hygromycin resistance marker). Clonal cell lines were isolated following selection in media supplemented with 0.4 mg ml^−1 Geneticin G418 (Invitrogen, Cat #10131-027) and 0.1 mg ml^1 hygromycin (Invitrogen, Cat #10687-010). These clonal cell lines were assessed for Cav2.2α/β3-mediated current expression using the IonWorks planar array electrophysiology technology (described below). A clonal line was identified that gave a reasonable level of functional Cav2.2α/β3 current expression. This cell line was transfected with a plasmid vector for expression of the human […] subunit (pCIP-α2δ1 which carries a puromycin resistance marker) and clonal cell lines isolated following selection in media containing 0.62 μg ml^−1 puromycin (Sigma, Cat #P-7255), in addition to 0.4 mg ml^−1 Geneticin G418 and 0.1 mg ml^−1 hygromycin. Several cell lines were identified that gave robust levels of Cav2.2α/β3/α2δ1-mediated current expression and one of these was selected for compound profiling. Expression of all three subunits within this cell line was continuously maintained by the inclusion of G418 (0.4 mg ml^−1), hygromycin (0.1 mg ml^−1) and puromycin (0.62 μg ml^−1). Cells were maintained at 37° C. in a humidified environment containing 5% CO2 in air. Cells were liberated from the T175 culture flasks for passage and harvesting using TrpLE (Invitrogen, Cat #12604-013).
Cells were grown to 30-60% confluence in T175 flasks and maintained at 30° C. for 24 hrs prior to recording. Cells were lifted by removing the growth media, washing with Ca^2+ free PBS (Invitrogen, Cat #14190-094) and incubating with 3 ml of warmed (37° C.) TrpLE (Invitrogen, Cat #12604-013) for 6 minutes. Lifted cells were suspended in 10 ml of extracellular buffer. Cell suspension was then placed into a 15 ml tube and centrifuged for 2 minutes at 700 rpm. After centrifugation, the supernatant was removed and the cell pellet was resuspended in 4.5 ml of extracellular solution.
Currents were recorded at room temperature (21-23° C.) using the IonWorks planar array electrophysiology technology (Molecular Devices Corp.). Stimulation protocols and data acquisition were carried out using a microcomputer (Dell Pentium 4). In order to determine planar electrode hole resistances (Rp), a 10 mV, 160 ms potential difference was applied across each hole. These measurements were performed before cell addition. After cell addition a seal test was performed prior to antibiotic (amphotericin) circulation to achieve intracellular access. Leak subtraction was conducted in all experiments by applying a 160 ms hyperpolarizing (10 mV) prepulse 200 ms before the test pulses to measure leak conductance. Test pulses stepping from the holding potential (VH) of −90 mV to +10 mV were applied for 20 ms and repeated 10 times at a frequency of 10 Hz. In all experiments, the test pulse protocol was performed in the absence (pre-read) and presence (post-read) of a compound. Pre- and post-reads were separated by a compound addition followed by a 3-3.5 min incubation.
The intracellular solution contained the following (in mM): K-gluconate 120, KCl 20 mM, MgCl2 5, EGTA 5, HEPES 10, adjusted to pH 7.3. […]

Compound | IC50 [µM]
Cc1ccc(C(=O)N2CCN(S(=O)(=O)c3ccc(C(F)(F)F)cc3)C[C@@H]2C)cn1 [Example 1, (2S)-2-Methyl-1-[(6-methyl-3-pyridinyl)carbonyl]-4-{[4-(trifluoromethyl)phenyl]sulfonyl}piperazine] | ≥ 31.6
Cc1ncccc1C(=O)N1CCN(S(=O)(=O)c2ccc(C(F)(F)F)cc2)C[C@@H]1C [Example 2, (2S)-2-Methyl-1-[(2-methyl-3-pyridinyl)carbonyl]-4-{[4-(trifluoromethyl)phenyl]sulfonyl}piperazine hydrochloride] | ≥ 31.6
O=C(c1cccnc1)N1CCN(S(=O)(=O)c2ccc(C(F)(F)F)cc2)CC1 [Example 3, 1-(3-Pyridinylcarbonyl)-4-{[4-(trifluoromethyl)phenyl]sulfonyl}piperazine] | ≥ 31.6
Cc1ccc(C(=O)N2CCN(S(=O)(=O)c3ccc(C(F)(F)F)cc3)CC2)cn1 [Example 4, 1-[(6-Methyl-3-pyridinyl)carbonyl]-4-{[4-(trifluoromethyl)phenyl]sulfonyl}piperazine] | ≥ 31.6
Cc1ncccc1C(=O)N1CCN(S(=O)(=O)c2ccc(C(F)(F)F)cc2)CC1 [Example 5, 1-[(2-Methyl-3-pyridinyl)carbonyl]-4-{[4-(trifluoromethyl)phenyl]sulfonyl}piperazine] | ≥ 31.6
O=C(c1ccc(N2CCOCC2)nc1)N1CCN(S(=O)(=O)c2ccc(C(F)(F)F)cc2)CC1 [Example 6, 4-{5-[(4-{[4-(Trifluoromethyl)phenyl]sulfonyl}-1-piperazinyl)carbonyl]-2-pyridinyl}morpholine] | ≥ 31.6
C[C@H]1CN(C(=O)c2ccc(N3CCOCC3)nc2)CCN1S(=O)(=O)c1ccc(Cl)cc1 [Example 7, 4-[5-({(3S)-4-[(4-Chlorophenyl)sulfonyl]-3-methyl-1-piperazinyl}carbonyl)-2-pyridinyl]morpholine] | ≥ 31.6
Cc1ccc(C(=O)N2CCN(S(=O)(=O)c3ccc(Cl)cc3)[C@@H](C)C2)cn1 [Example 8, (2S)-1-[(4-Chlorophenyl)sulfonyl]-2-methyl-4-[(6-methyl-3-pyridinyl)carbonyl]piperazine] | ≥ 31.6
Cc1ccc(C(=O)N2CCN(S(=O)(=O)c3ccc(C(F)(F)F)cc3)[C@H](C)C2)cn1 [Example 9, (2R)-2-Methyl-4-[(6-methyl-3-pyridinyl)carbonyl]-1-{[4-(trifluoromethyl)phenyl]sulfonyl}piperazine formic acid salt] | ≥ 31.6
Cc1ncccc1C(=O)N1CCN(S(=O)(=O)c2ccc(C(F)(F)F)cc2)[C@H](C)C1 [Example 10, (2R)-2-Methyl-4-[(2-methyl-3-pyridinyl)carbonyl]-1-{[4-(trifluoromethyl)phenyl]sulfonyl}piperazine formic acid salt] | ≥ 31.6
Cc1ccc(C(=O)N2CCN(S(=O)(=O)c3ccc(C(F)(F)F)cc3)[C@@H](C)C2)cn1 [Example 11, (2S)-2-Methyl-4-[(6-methyl-3-pyridinyl)carbonyl]-1-{[4-(trifluoromethyl)phenyl]sulfonyl}piperazine formic acid salt] | ≥ 31.6
Cc1ncccc1C(=O)N1CCN(S(=O)(=O)c2ccc(C(F)(F)F)cc2)[C@@H](C)C1 [Example 12, (2S)-2-Methyl-4-[(2-methyl-3-pyridinyl)carbonyl]-1-{[4-(trifluoromethyl)phenyl]sulfonyl}piperazine formic acid salt] | ≥ 31.6
C[C@H]1CN(S(=O)(=O)c2ccc(C(F)(F)F)cc2)CCN1C(=O)c1ccc(C#N)nc1 [Example 13, 5-[((2S)-2-Methyl-4-{[4-(trifluoromethyl)phenyl]sulfonyl}-1-piperazinyl)carbonyl]-2-pyridinecarbonitrile] | ≥ 31.6
COc1ccc(C(=O)N2CCN(S(=O)(=O)c3ccc(C(F)(F)F)cc3)C[C@@H]2C)cn1 [Example 14, (2S)-2-Methyl-1-{[6-(methyloxy)-3-pyridinyl]carbonyl}-4-{[4-(trifluoromethyl)phenyl]sulfonyl}piperazine] | ≥ 31.6
COc1ncccc1C(=O)N1CCN(S(=O)(=O)c2ccc(C(F)(F)F)cc2)C[C@@H]1C [Example 15, (2S)-2-Methyl-1-{[2-(methyloxy)-3-pyridinyl]carbonyl}-4-{[4-(trifluoromethyl)phenyl]sulfonyl}piperazine] | ≥ 31.6
Cc1cncc(C(=O)N2CCN(S(=O)(=O)c3ccc(C(F)(F)F)cc3)C[C@@H]2C)c1 [Example 16, (2S)-2-Methyl-1-[(5-methyl-3-pyridinyl)carbonyl]-4-{[4-(trifluoromethyl)phenyl]sulfonyl}piperazine] | ≥ 31.6
Cc1ccc(C(=O)N2CCN(S(=O)(=O)c3ccc(C#N)cc3C)C[C@@H]2C)cn1 [Example 17, 3-Methyl-4-({(3S)-3-methyl-4-[(6-methyl-3-pyridinyl)carbonyl]-1-piperazinyl}sulfonyl)benzonitrile] | ≥ 31.6
Cc1ccncc1C(=O)N1CCN(S(=O)(=O)c2ccc(C(F)(F)F)cc2)C[C@@H]1C [Example 18, (2S)-2-Methyl-1-[(4-methyl-3-pyridinyl)carbonyl]-4-{[4-(trifluoromethyl)phenyl]sulfonyl}piperazine] | ≥ 31.6
Cc1ccc(C(=O)N2CCN(S(=O)(=O)c3ccc(C(F)(F)F)cc3)C[C@H]2C)cn1 [Example 19, (2R)-2-methyl-1-[(6-methyl-3-pyridinyl)carbonyl]-4-{[4-(trifluoromethyl)phenyl]sulfonyl}piperazine formic acid salt (1:1)] | ≥ 31.6
Cc1ncccc1C(=O)N1CCN(S(=O)(=O)c2ccc(C(F)(F)F)cc2)C[C@H]1C [Example 20, (2R)-2-methyl-1-[(2-methyl-3-pyridinyl)carbonyl]-4-{[4-(trifluoromethyl)phenyl]sulfonyl}piperazine formic acid salt (1:1)] | ≥ 31.6
Cc1ccc(C(=O)N2CCN(S(=O)(=O)c3ccc(OC(F)(F)F)cc3)C[C@@H]2C)cn1 [Example 21, (2S)-2-Methyl-1-[(6-methyl-3-pyridinyl)carbonyl]-4-({4-[(trifluoromethyl)oxy]phenyl}sulfonyl)piperazine] | ≥ 31.6
Cc1ccc(C(=O)N2CCN(S(=O)(=O)c3ccc(OC(F)F)cc3)C[C@@H]2C)cn1 [Example 22, (2S)-4-({4-[(Difluoromethyl)oxy]phenyl}sulfonyl)-2-methyl-1-[(6-methyl-3-pyridinyl)carbonyl]piperazine] | ≥ 31.6
Cc1ccc(C(=O)N2CCN(S(=O)(=O)c3ccc(OC(F)(F)F)cc3)CC2)cn1 [Example 23, 1-[(6-Methyl-3-pyridinyl)carbonyl]-4-({4-[(trifluoromethyl)oxy]phenyl}sulfonyl)piperazine] | ≥ 31.6
Cc1nc(Cl)ccc1C(=O)N1CCN(S(=O)(=O)c2ccc(C(F)(F)F)cc2)C[C@@H]1C [Example 24, (2S)-1-[(6-Chloro-2-methyl-3-pyridinyl)carbonyl]-2-methyl-4-{[4-(trifluoromethyl)phenyl]sulfonyl}piperazine] | ≥ 10
Cc1cc(C#N)ccc1S(=O)(=O)N1CCN(C(=O)c2ccc(Cl)nc2C)[C@@H](C)C1 [Example 25, 4-({(3S)-4-[(6-Chloro-2-methyl-3-pyridinyl)carbonyl]-3-methyl-1-piperazinyl}sulfonyl)-3-methylbenzonitrile] | ≥ 10
C[C@H]1CN(S(=O)(=O)c2ccc(C(F)(F)F)cc2)CCN1C(=O)c1cncc(Br)c1 [Example 28, (2S)-1-[(5-Bromo-3-pyridinyl)carbonyl]-2-methyl-4-{[4-(trifluoromethyl)phenyl]sulfonyl}piperazine] | ≥ 10
